Laboratory results published in ChEMBL document CHEMBL1201862, “PubChem BioAssay data set” (2004).
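Cells were grown in 96-well plates and exposed to each compound for 48 hours at five concentrations; endpoints were interpolated linearly between bracketing concentrations, or set to the highest concentration if not reached. GI50 is the concentration that inhibits growth by half.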 The source made the active and inactive calls. Rule as the data show it: active = GI50 up to about 1.1 µM and inactive = higher.

Experiments:
Test in all cases: growth of human tumour cells (NCI), 48 h
[1] = tested on: KM12
[2] = tested on: A549
[3] = tested on: RPMI-8226
[4] = tested on: HL-60
[5] = tested on: BT-549
[6] = tested on: CCRF-CEM
[7] = tested on: T47D
[8] = tested on: OVCAR-8
[9] = tested on: SR
[10] = tested on: OVCAR-5
[11] = tested on: LOX IMVI
[12] = tested on: HCC 2998
[13] = tested on: U-251
[14] = tested on: DU-145
[15] = tested on: HOP-62
[16] = tested on: A498
[17] = tested on: 786-0
[18] = tested on: K562
[19] = tested on: SNB-19
[20] = tested on: NCI-H23
[21] = tested on: SF-295
[22] = tested on: NCI-H522
[23] = tested on: UO-31
[24] = tested on: RXF 393
[25] = tested on: NCI/ADR-RES
[26] = tested on: HCT-116
[27] = tested on: SK-MEL-28
[28] = tested on: TK-10
[29] = tested on: M14
[30] = tested on: NCI-H460
[31] = tested on: SNB-75
[32] = tested on: OVCAR-3
[33] = tested on: IGROV-1
[34] = tested on: SN12C
[35] = tested on: HOP-92
[36] = tested on: OVCAR-4
[37] = tested on: SW-620
[38] = tested on: MDA-N
[39] = tested on: SK-MEL-2
[40] = tested on: Hs-578T
[41] = tested on: CAKI-1
[42] = tested on: SF-268
[43] = tested on: ACHN
[44] = tested on: HT-29
[45] = tested on: COLO 205
[46] = tested on: UACC-257
[47] = tested on: PC-3
[48] = tested on: HCT-15
[49] = tested on: UACC-62
[50] = tested on: MCF7
[51] = tested on: SK-MEL-5
[52] = tested on: Malme-3M
[53] = tested on: NCI-H226
[54] = tested on: SK-OV-3
[55] = tested on: MDA-MB-435
[56] = tested on: EKVX
[57] = tested on: MDA-MB-231

Question: For NC(CSCc1ccccc1)C(=O)O (configuration not stated), which GI50 [1] is on record?
Answer: > 100 µM (inactive)

Question: And the GI50 [2]?
Answer: > 100 µM (inactive)

Question: What about the GI50 [3] of the same molecule?
Answer: > 100 µM (inactive)

Question: What about the GI50 [4] of the same molecule?
Answer: > 100 µM (inactive)

Question: What about the GI50 [5] of the same molecule?
Answer: > 100 µM (inactive)

Question: What about the GI50 [6] of the same molecule?
Answer: > 100 µM (inactive)

Question: And the GI50 [7]?
Answer: > 100 µM (inactive)

Question: What about the GI50 [8] of the same molecule?
Answer: > 100 µM (inactive)

Question: And the GI50 [9]?
Answer: > 100 µM (inactive)

Question: And the GI50 [10]?
Answer: > 100 µM (inactive)

Question: What about the GI50 [11] of the same molecule?
Answer: > 100 µM (inactive)

Question: And the GI50 [12]?
Answer: > 100 µM (inactive)

Question: And the GI50 [13]?
Answer: > 100 µM (inactive)

Question: What about the GI50 [14] of the same molecule?
Answer: > 100 µM (inactive)

Question: And the GI50 [15]?
Answer: > 100 µM (inactive)

Question: What about the GI50 [16] of the same molecule?
Answer: > 100 µM (inactive)

Question: What about the GI50 [17] of the same molecule?
Answer: > 100 µM (inactive)

Question: What about the GI50 [18] of the same molecule?
Answer: > 100 µM (inactive)

Question: What about the GI50 [19] of the same molecule?
Answer: > 100 µM (inactive)

Question: And the GI50 [20]?
Answer: > 100 µM (inactive)

Question: What about the GI50 [21] of the same molecule?
Answer: > 100 µM (inactive)

Question: And the GI50 [22]?
Answer: > 100 µM (inactive)

Question: And the GI50 [23]?
Answer: > 100 µM (inactive)

Question: And the GI50 [24]?
Answer: > 100 µM (inactive)

Question: And the GI50 [25]?
Answer: > 100 µM (inactive)

Question: What about the GI50 [26] of the same molecule?
Answer: > 100 µM (inactive)

Question: What about the GI50 [27] of the same molecule?
Answer: > 100 µM (inactive)

Question: What about the GI50 [28] of the same molecule?
Answer: > 100 µM (inactive)

Question: And the GI50 [29]?
Answer: > 100 µM (inactive)

Question: And the GI50 [30]?
Answer: > 100 µM (inactive)

Question: And the GI50 [31]?
Answer: > 100 µM (inactive)

Question: And the GI50 [32]?
Answer: > 100 µM (inactive)

Question: And the GI50 [33]?
Answer: > 100 µM (inactive)

Question: And the GI50 [34]?
Answer: > 100 µM (inactive)

Question: And the GI50 [35]?
Answer: > 100 µM (inactive)

Question: What about the GI50 [36] of the same molecule?
Answer: > 100 µM (inactive)

Question: What about the GI50 [37] of the same molecule?
Answer: > 100 µM (inactive)

Question: What about the GI50 [38] of the same molecule?
Answer: > 100 µM (inactive)

Question: What about the GI50 [39] of the same molecule?
Answer: > 100 µM (inactive)

Question: And the GI50 [40]?
Answer: > 100 µM (inactive)

Question: And the GI50 [41]?
Answer: > 100 µM (inactive)

Question: And the GI50 [42]?
Answer: > 100 µM (inactive)

Question: And the GI50 [43]?
Answer: > 100 µM (inactive)

Question: And the GI50 [44]?
Answer: > 100 µM (inactive)

Question: And the GI50 [45]?
Answer: > 100 µM (inactive)

Question: And the GI50 [46]?
Answer: > 100 µM (inactive)

Question: And the GI50 [47]?
Answer: > 100 µM (inactive)

Question: What about the GI50 [48] of the same molecule?
Answer: > 100 µM

Question: And the GI50 [49]?
Answer: > 100 µM (inactive)

Question: And the GI50 [50]?
Answer: > 100 µM (inactive)

Question: What about the GI50 [51] of the same molecule?
Answer: > 100 µM (inactive)

Question: And the GI50 [52]?
Answer: > 100 µM (inactive)

Question: What about the GI50 [53] of the same molecule?
Answer: > 100 µM (inactive)

Question: And the GI50 [54]?
Answer: > 100 µM (inactive)

Question: And the GI50 [55]?
Answer: > 100 µM (inactive)

Question: What about the GI50 [56] of the same molecule?
Answer: > 100 µM (inactive)

Question: And the GI50 [57]?
Answer: > 100 µM (inactive)
